# According to patent publication US9937225B2, “Topical formulations and uses thereof” (OCULAR TECHNOLOGIES SARL, priority 2012, dated 2018):
# Experiments:
# [1] = Weight percent of compound 1001 loaded into mixed nanomicelles (entrapment, RP-HPLC); format: physicochemical; conditions: solvent evaporation, HCO-60 4 wt %, Octoxynol-40 0.01 wt %
# Procedure: To determine the entrapment efficiency of the formulation, all the prepared formulations were subjected to entrapment efficiency test. Briefly, formulations were vortex mixed for homogeneity and 1 mL was transferred to a fresh (1.5 mL) eppendorf tube. Each formulation was lyophilized to obtain a solid at the bottom of eppendorf tube. The obtained solid was suspended in 1 mL of organic solvent (diethyl ether) to generate reverse micelles and release the drug into the external organic solvent. The organic solvent was evaporated overnight in speed vacuum. The resultant reversed micelles were resuspended in 1 mL of 2-propanol (dilution factor was taken into account) and further diluted to determine the concentration of compound 1001 entrapped in each micellar preparation with HPLC. The entrapment efficiency of the formulation was calculated with the following formula (wherein MNF=Mixed Nanomicellar Formulation): […]
# In vitro analysis of compound 1001 was performed by a reversed phase high performance liquid chromatography (RP-HPLC) method with a Shimadzu HPLC pump (Shimadzu, Shimadzu Scientific instruments, Columbia, Md.), Alcott autosampler (model 718 AL), Shimadzu UV/Visible detector (Shimadzu, SPD-20A/20AV, USA), ODS column (5 μm, 150×4.6 mm) thermostated at 40°±1 C and Hewlett Packard HPLC integrator (Hewlett Packard, Palo Alto, Calif.). The mobile phase was comprised of methanol (MeOH), water and trifluoroacetic acid (TFA) (70:30:0.05% v/v) which was set at a flow rate of 0.5 mL/min. Detection wavelength was set at 272 nm. The sample tray temperature was maintained at 4° C. Calibration curve (0.5 to 5 μg/mL) for compound 1001 was prepared by making appropriate dilutions from the stock solution in 2-propanol. An injection volume of 10 μl was injected into the HPLC column for analysis. All the standards and samples prepared were stored at 4° C. before and during the analysis.
# Mixed nanomicellar formulation encapsulating compound 1001 was prepared by solvent evaporation method in two steps: 1) Preparation of basic formulation and 2) rehydration. In step one, compound 1001, HCO-60 and octoxynol-40 were dissolved separately in 0.3 mL of ethyl acetate. These three solutions were mixed together in 15-mL centrifuge tube. The resultant mixture was vortexed to obtain a homogenous solution. Ethyl acetate solvent was removed with speed vacuum to obtain a solid thin film. The residue was kept overnight under high vacuum at room temperature to remove residual organic solvent. In step two, the resultant thin film was hydrated with 1 mL of double distilled deionized water by vortexing the solution. The rehydrated formulation was suspended in 2× phosphate buffer solution, (pH 6.5). It was filtered through 0.2 μm nylon filter membrane to remove the unentrapped drug aggregates and other foreign particulates. The entrapment of compound 1001 was determined by RP-HPLC following disruption of the micelles and solubilization of 1001 in the diluent (2-propanol) as described below
# Weight percent of drug loaded into MNF was determined following the method for entrapment efficiency. Size and polydispersity index of the formulations was determined with Malvern zetasizer as described above. The formulations appear clear and have small size and narrow size distribution.
# [2] = Ocular tissue distribution of compound 1001 nanomicellar formulations (LC-MS/MS); format: in vivo, New Zealand White Rabbits; conditions: rabbits, topical ocular administration
# Procedure: A study was conducted in rabbits to test the tolerance and ocular tissue distribution of two nanomicellar formulations of compound 1001 (RX10045) against matching placebos (Table 6a and 6b) and balanced saline solution (BSS). Healthy New Zealand female white rabbits (2-3 kg) were used for this study. One drop (approximately 35 μL) of study drug was applied o.d. 4×/day at two hour intervals for 5 days. One drop of BSS was applied to the contralateral eye.
# Selected ocular fluids/tissues (aqueous humor, vitreous humor, conjunctiva, cornea, iris-ciliary body, lens, retina/choroid, and sclera) collected from two rabbits each in the RX-10045 (0.15% in HCO-60, 0.1% in HCO-40) treatment groups, and from one rabbit in each of the matching placebo groups, were assayed for compound 1001 and another resolvin by liquid chromatography-tandem mass spectrometry (LC-MS/MS). Warfarin-d5 and 5-HDA were used as internal standards for the analysis of RX-10045 and its active metabolite, RX-10008, respectively, in aqueous humor and vitreous humor. For the other ocular tissues (solid tissues), warfarin-d5 and phenyl acetic acid-d5 (PAA-d5) were used as the internal standards for compound 1001 and RX-10008, respectively. The analytical range for the solid tissues were 0.125-100 ng. The results of the solid tissue analyses were converted to ng/g by correcting for the amount of tissue analyzed.
compound,measurement,setting,value
C#CC[C@@H](O)/C=C/C=C/C#C[C@@H](O)CCCC(=O)OC(C)C [compound 1001],1001 (loaded in mixed micelles) wt %,[1]; 1001 initially added 0.035 wt %,0.033 wt %
same,1001 (loaded in mixed micelles) wt %,[1]; 1001 initially added 0.070 wt %,0.065 wt %
same,1001 (loaded in mixed micelles) wt %,[1]; 1001 initially added 0.095 wt %,0.084 wt %
same,1001 (loaded in mixed micelles) wt %,[1]; 1001 initially added 0.120 wt %,0.11 wt %
same,1001 (loaded in mixed micelles) wt %,[1]; 1001 initially added 0.250 wt %,0.26 wt %
same,1001 (loaded in mixed micelles) wt %,[1]; 1001 initially added 0.300 wt %,0.32 wt %
same,1001 (loaded in mixed micelles) wt %,[1]; 1001 initially added 0.400 wt %,0.45 wt %
same,Hydrolysis to active metabolite RX-10008 in ocular tissues,[2],rapidly hydrolyzed
